Results taken from patent publication US4252956A, “Derivatives of 1,4-dihydropyridine-3-carbothiol acids” (priority 1979, dated 1981).
Like-named read-outs stand apart in the source and are kept apart here.

Legend:
arterial pressure = assay: hypotensive effect (arterial pressure, heart activity); format: in vivo; conditions: for ED30: read-out: ED30 of the hypotensive effect
Description: (§1) Tests of the compounds according to the present invention were performed in comparison with the prior art coronarodilating agents; carbocromene and ditrimine and with the prior art spasmolytic preparation-papaverine having a myotropic effect.

coronary blood flow = assay: recording the volume rate of coronary blood flow in experiments on narcotized cats (coronarodilating activity); format: in vivo; conditions: for ED (30-50%): Felis catus, iv, read-out: Dose increasing the coronary blood flow by 30-50%; for Duration of the effect: Table, at the dose increasing the coronary blood flow; for coronarodilating activity: narcotized cats
Description: as §1

[1] = tested on: coronarodilating activity; conditions: in vivo; cited from earlier work
in vivo = conditions: mouse, in vivo, ip; white mice, intraperitoneal; read-out: LD50 for white mice upon intraperitoneal administration
white mice = assay: in vivo
[2] = increase of coronary blood flow by 30-50%

| Structure (SMILES) | ED30 (arterial pressure) [mg/kg] | ED (30-50%) (coronary blood flow; [2]) [mg/kg] | Duration of the effect (coronary blood flow) [min] | further results |
| --- | --- | --- | --- | --- |
| CCSC(=O)C1=C(C)NC2=C(C(=O)c3ccccc32)C1c1ccccc1O (centres unmarked) [VIII, 2-methyl-3-ethylthiocarbonyl-4-o-hydroxyphenyl-5-oxo-1,4-dihydroindeno-(1,2-b)pyridine] | 5 | 3 |  |  |
| COC(=O)C1=C(C)NC(C)=C(C(=O)OC)C1c1ccccc1[N+](=O)[O-] [2,6-dimethyl-3,5-dicarbometh-oxy-4-o-nitrophenyl-1,4-dihydropyridine] |  |  |  | coronarodilating activity (prior art) [1]: pronounced coronarodilating activity |
| CCOC(=O)C1=C(C)NC(C)=C(C(=O)SCc2ccccc2)C1c1ccccc1 (centres unmarked) [III, 3-S-benzyl-5-ethyl ester of 4-phenyl-2,6-dimethyl-1,4-dihydropyridine-3-carbothiol-5-carboxylic acid] | 1.65 | 0.5 | 150 | coronarodilating activity (coronary blood flow): most active |
| CCOC(=O)C1=C(C)NC(C)=C(C(=O)SCc2ccccc2)C1C (centres unmarked) [IV, 3-S-benzyl-5-ethyl ester of 2,4,6-trimethyl-1,4-dihydropyridine-3-carbothiol-5-carboxylic acid] | 3.45 | 2 to 4 | 30 to 60 |  |
| CCSC(=O)C1=C(C)NC2=C(C(=O)c3ccccc32)C1c1ccc([N+](=O)[O-])cc1 (centres unmarked) [IX, 2-methyl-3-ethyl-thiocarbonyl-4-p-nitrophenyl-5-oxo-1,4-dihydroindeno-(1,2-b)-pyridine] | 1 | 3 |  |  |
| CCSC(=O)C1=C(C)NC2=C(C(=O)c3ccccc32)C1c1ccccc1 (centres unmarked) [V, 2-methyl-3-ethylthiocarbonyl-4-phenyl-5-oxo-1,4-dihydroindeno-(1,2-b)-pyridine] | 3 | 3 |  |  |
| CC1=C(C(=O)SCc2ccccc2)C(c2ccccc2O)C2=C(N1)c1ccccc1C2=O (centres unmarked) [VII, 2-methyl-3-benzylthiocarbonyl-4-o-hydroxyphenyl-5-oxo-1,4-dihydroindeno-(1,2-b)-pyridine] | 1 |  |  | ED (30-50%) (coronary blood flow): 0.5 mg/kg; coronarodilating activity (coronary blood flow): most active |
| CC1=C(C(=O)SCc2ccccc2)C(c2ccccc2)C2=C(N1)c1ccccc1C2=O (centres unmarked) [VI, 2-methyl-3-benzylthiocarbonyl-4-phenyl-5-oxo-1,4-dihydroindeno-(1,2-b)-pyridine] | 1 |  |  | ED (30-50%) (coronary blood flow): 0.3 mg/kg; coronarodilating activity (coronary blood flow): most active |
| CCSC(=O)C1=C(C)NC2=C(C(=O)c3ccccc32)C1c1ccccc1[N+](=O)[O-] (centres unmarked) [X, 2-methyl-3-ethylthiocarbonyl-4-o-nitrophenyl-5-oxo-1,4-dihydroindeno-(1,2-b)-pyridine] |  | 3 |  | LD50 (in vivo): > 2000 mg/kg |
| COc1cc(C(=O)OCCCN(C)CCN(C)CCCOC(=O)c2cc(OC)c(OC)c(OC)c2)cc(OC)c1OC [Ditrimine, reference compound] |  |  |  | ED30 of the hypotensive effect (arterial pressure; in vivo): 1.0 mg/kg; LD50 for white mice upon intraperitoneal administration (white mice): 180 (149-218) mg/kg; Dose increasing the coronary blood flow by 30-50% (coronary blood flow; [2]): 0.5 mg/kg |
| CCSC(=O)C1=C(C)NC(C)=C(C(=O)SCC)C1 [I, Di-S-ethyl ester of 2,6-dimethyl-1,4-dihydropyridine-3,5-dicarbothiol acid] | 1.8 | 1 | 60 to 90 | LD50 (in vivo): > 4000 mg/kg |
| COc1ccc(Cc2nccc3cc(OC)c(OC)cc23)cc1OC [Papaverine, reference compound] | 0.27 |  | 10 to 20 | LD50 (in vivo): 91 mg/kg; ED (30-50%) (coronary blood flow): 1 mg/kg |
| CCOC(=O)COc1ccc2c(C)c(CCN(CC)CC)c(=O)oc2c1 [Carbocromene, reference compound] |  | 0.5 |  |  |
| CCSC(=O)C1=C(C)NC(C)=C(C(=O)SCC)C1c1cccnc1 [II, Di-S-ethyl ester of 2,6-dimethyl-4-m-pyridyl-1,4-dihydropyridine-3,5-dicarbothiol acid] | 0.56 | 0.5 | > 120 | coronarodilating activity (coronary blood flow): most active |
